Entries after “also recorded” stand apart in the source; their conditions may differ. Where two headings read alike, the source gives them in different places.
What was measured:
BCKDC kinase (BDK) = BCKDC kinase (BDK) (Rattus norvegicus, UniProt Q00972); assay: Protection of E1 from BDK induced phosphorylation and inactivation; type: biochemical; conditions: for kcat, KIC / kcat, KIV / kcat, KMV / Km: E1 decarboxylase activity, [+] Phenylbutyrate^b
Experimental: To determine the effect of phenylbutyrate on individual BCAA catabolic enzymes, activities of mitochondrial branched chain amino transferase (BCATm) and BCKDC enzymes were measured with and without phenylbutyrate using purified recombinant enzymes. BCATm generates the BCKA products that are elevated in MSUD and are the substrates for BCKDC. BCATm activity was measured at pH 8.0 and 298 K as described in Example 2. Kinetics of the E1 decarboxylase reaction with and without phenylbutyrate were determined in the presence of an artificial electron acceptor 2, 6-dichlorophenolindophenol (DCPIP). The assay mixture contained 100 mM potassium phosphate, pH 7.5, 2.0 mM MgCl2, 0.2 mM thiamin diphosphate (ThDP) and 0.1 mM DCPIP. The rate of decarboxylation at 30° C. was measured by monitoring the reduction of the dye at 600 nm (24, 25). For the overall BCKDC activity assay, the enzymes were exchanged into phosphate buffer (30 mM potassium phosphate, pH 7.5) containing 5 mM DTT using a PD-10 column and the enzyme concentrations were calculated from the absorption maxima at 280 nm. The protein complex was reconstituted with E1, lipoylated E2 (lip-E2) and E3 at a molar ratio of 12:1:55, in which lip-E2 exists as a 24-mer. The assay mixture contained 30 mM potassium phosphate pH 7.5, 100 mM NaCl, 3 mM NAD^+, 0.4 mM CoA, 2 mM MgCl2, 2 mM DTT, 0.1% Triton X-100, and 2 mM ThDP. The overall reaction was monitored by formation of NADH at 340 nm. The apparent rate constants (kapp) at different substrate concentrations for all of the above assays were determined from the absorption changes at the individual wavelength maximum. The kapp rate constants were fit using the following equation: kapp=kcat[S]/(Km+[S])
The phosphorylation of E1 was carried out in the phosphorylation reaction mix (30 mM HEPES, pH 7.4, 2 mM DTT, 1.5 mM MgCl2, and 0.2 mM EGTA) with and without addition of phenylbutyrate. E1, E2, and E3 proteins were mixed at 12:1:55 molar ratio in a 0.1 ml reaction mix, and 0.1 μg of maltose-binding protein-tagged rat BCKDC kinase (BDK) was added. The mix was pre-incubated at room temperature for 15 minutes. The phosphorylation reaction was started after addition of 0.4 mM ATP to the reaction mix, and the reaction was terminated at different time points by addition of higher salt concentration. Overall BCKDC activity was measured as described above.

[1] = test system: plasma branched chain amino acids (BCAA) and branched chain ketoacids (BCKA); assay: Clinical protocol: plasma BCAA and BCKA before and after sodium phenylbutyrate; type: in vivo, human; conditions: day 3 vs baseline, listed as sodium phenylbutyrate
From the text: FIG. 1 is a graph representing levels of branched chain amino acids (BCAAs) in control subjects (N=3) at baseline and then after treatment with sodium phenylbutyrate (PBA). Abbreviations: Ile=Isoleucine; Leu=Leucine; Val=Valine. *: p<0.05. Values are average of three time points after two days of treatment. Study subjects received PBA at the dose of 10 gram/m^2/day divided in four equal doses every six hours for three days. The subjects received a constant protein intake of 0.6 grams/kg/day as a combination of BCAA-free formula and whole protein. Measurements were performed on day three at three different time points separated by 30 minutes in the fed state. Note that y-axis represents concentrations comparing baseline to three days of treatment.
FIG. 2 is a graph representing levels of branched chain ketoacids (BCKAs) in control subjects (N=3) at baseline and then after treatment with sodium phenylbutyrate. Abbreviations: KMV=α-keto-β-methylvalerate; KIC=α-ketoisocaproate; KIV=α-ketoisovalerate. *: p<0.05. Values are average of three time points after two days of treatment. Subjects were all on the same steady state protein intake for three days at testing. Study subjects received PBA at the dose of 10 gram/m^2/day divided in four equal doses every six hours for three days. The subjects received a constant protein intake of 0.6 grams/kg/day as a combination of BCAA-free formula and whole protein. Measurements were performed on day three at three different time points separated by 30 minutes in the fed state. Note that y-axis represents concentrations comparing baseline to three days of treatment.
FIG. 3 is a graph representing levels of branched chain amino acids (BCAAs) in MSUD patients (N=5) at baseline and then after treatment with sodium phenylbutyrate. Values are average of three time points after two days of treatment. Patients were all on steady state protein intake for three days at testing. Study subjects received PBA at the dose of 10 gram/m^2/day divided in four equal doses every six hours for three days. The subjects received a constant protein intake of 0.6 grams/kg/day as a combination of BCAA-free formula and whole protein. Measurements were performed on day three at three different time points separated by 30 minutes in the fed state. Abbreviations: Ile=Isoleucine; Leu=Leucine; Val=Valine. *: p<0.05. Note that y-axis represents concentrations comparing baseline to three days of treatment.
FIG. 4 is a graph representing levels of branched chain ketoacids (BCKAs) in MSUD patients (N=5) at baseline and then after treatment with sodium phenylbutyrate. Values are average of three time points after two days of treatment. Patients were all on steady state protein intake for three days at testing. […]

[2] = MSUD patients (N=5), three of five responders, 10 gram/m^2/day
[3] = healthy control subjects (N=3), 10 gram/m^2/day in four doses

- phosphorylation and inactivation of E1 in the presence of BCKDC kinase (BCKDC kinase (BDK)): prevent completely
- kcat, KIC (BCKDC kinase (BDK); [+] BDK): 0.343 ± 0.0417 s⁻¹
- kcat, KIV (BCKDC kinase (BDK); [+] BDK): 0.433 ± 0.0367 s⁻¹
- kcat, KMV (BCKDC kinase (BDK); [+] BDK): 0.367 ± 0.03 s⁻¹
- Km (BCKDC kinase (BDK); [+] BDK, read-out: Km, KIC): 21 ± 1.9 µM
- Km (BCKDC kinase (BDK); [+] BDK, read-out: Km, KIV): 25 ± 2 µM
- Km (BCKDC kinase (BDK); [+] BDK, read-out: Km, KMV): 21 ± 3 µM
- kcat, KIC (BCKDC kinase (BDK); [−] BDK): 0.33 ± 0.0283 s⁻¹
- kcat, KIV (BCKDC kinase (BDK); [−] BDK): 0.467 ± 0.0317 s⁻¹
- kcat, KMV (BCKDC kinase (BDK); [−] BDK): 0.333 ± 0.0183 s⁻¹
- Km (BCKDC kinase (BDK); [−] BDK, read-out: Km, KIC): 27 ± 2 µM
- Km (BCKDC kinase (BDK); [−] BDK, read-out: Km, KIV): 20 ± 3 µM
- Km (BCKDC kinase (BDK); [−] BDK, read-out: Km, KMV): 18 ± 2 µM
Structure (SMILES): O=C([O-])CCCc1ccccc1.[Na+] [phenylbutyrate, sodium 4-phenylbutyrate]
- plasma BCAA levels [1, 2]: reduced; also recorded: decreased their BCAAs
- plasma BCKA levels [1, 2]: significantly decreased; also recorded: decreased their BCKAs
- plasma BCAA levels (isoleucine, leucine, valine) [1, 3]: reduced; also recorded: significantly decreased levels
- plasma BCKA levels (KMV, KIC, KIV) [1, 3]: reduced; also recorded: decreased their BCKAs

From US11786494B2, “Methods of modulation of branched chain acids and uses thereof” (Baylor College of Medicine, priority 2009, dated 2023)
